Here are results for 32 compounds from ChEMBL document CHEMBL4834464, “Fragment-based Scaffold Hopping: Identification of Potent, Selective, and Highly Soluble Bromo and Extra Terminal Domain (BET) Second Bromodomain (BD2) Inhibitors” (J Med Chem, 2021).

The structures appear in SMILES notation. In brackets after ≈: the same amount, converted by molar mass. Bounds are passed on as bounds.

Series [1] is described as follows: Distribution coefficient, logD of the compound by chromatography. The series is classed as physicochemical. The conditions noted are these: octanol/water.
Series [2] can be described thus: Permeability of compound by AMP assay. The series is classed as ADME. The conditions noted are these: not told; read-out: permeability.
Series [3] can be described thus: Solubility of the compound by CLND assay. The series is classed as physicochemical.
Series [4] in a line: Kinetic solubility of compound […] using the charged aerosol detector (CAD) analysis. The series is classed as physicochemical. The conditions noted are these: read-out: Kinetic_solubility.
Series [5] can be described thus: Solubility of the compound in FaSSIF at pH 6.5 incubated for 16 hrs by HPLC gradient analysis. The series is classed as physicochemical. The conditions noted are these: for solubility at 16 h: FaSSIF, pH 6.5; for solubility: simulated gi fluid, pH 6.5, 16 h.
A short description of series [6]: Intrinsic clearance in human hepatocytes measured per gram of tissue incubated for 120 mins by LC-MS/MS method. The series is classed as ADME, cell-based, Hepatocyte. The following applies: 2 h.

`CNC(=O)c1cc(C(=O)NC2CC2)cn([C@H](C)c2ccccc2)c1=O`: the chromatographic logD (in general, lipophilicity estimated from chromatographic retention) in series [1] was found to be 3.5.
For `CNC(=O)c1cc(C(=O)NC2CCOCC2)n([C@@H](C)c2ccccc2)n1`, the Papp in series [2] is 27 ×10⁻⁶ cm/s. Also, the chromatographic logD in series [1] was 3.6. Besides, the solubility kinetic in series [3] was found to be 31 µg/mL (≈ 87 µM).
Consider `CNC(=O)c1cc(C(=O)N[C@H]2CC[C@H](O)CC2)n([C@@H](C)c2ccc(C(F)(F)F)cc2)n1`, for which the Papp in series [2] turned out to be 27 ×10⁻⁶ cm/s. Moreover, the chromatographic logD in series [1] stood at 3.9. In addition, the solubility kinetic in series [4] was no less than 175 µg/mL.
In the case of `CNC(=O)c1cc(C(=O)N[C@H]2CC[C@H](O)CC2)n([C@@H](C)c2cccc(C)c2)n1`, the Papp in series [2] was determined as 11 ×10⁻⁶ cm/s. The compound further showed a chromatographic logD in series [1] of 3.4. In series [4], the solubility kinetic is no less than 180 µg/mL.
`CNC(=O)c1cc(C(=O)NC(C)CO)n([C@@H](C)c2ccccc2)n1` (stereo partly specified): in series [2], the Papp came to 12 ×10⁻⁶ cm/s. The chromatographic logD in series [1] is 2.8. In series [3], the solubility kinetic is no less than 132 µg/mL.
On to `CCCNC(=O)c1cc(C(=O)NC)oc1[C@@H](C)c1ccccc1`, for which the Papp in series [2] stood at 48 ×10⁻⁶ cm/s. Further, the chromatographic logD in series [1] was 4.2. The solubility kinetic in series [3] was no less than 127 µg/mL.
`CNC(=O)c1cc(C(=O)N[C@H]2CC[C@H](O)CC2)c([C@@H](C)c2cccc(OC)c2)o1`: the Papp in series [2] was 4.4 ×10⁻⁶ cm/s. Also, in series [1], the chromatographic logD was found to be 2.9. Besides, the concentration in solution in series [5] (solubility at 16 h) came to 868 µg/mL (≈ 2170 µM). In addition, the solubility kinetic in series [4] was no less than 113 µg/mL.
For `CNC(=O)c1cc(C(=O)N[C@H]2CC[C@H](O)CC2)c([C@@H](C)c2ccccc2Cl)o1`, in that order: 7.8 ×10⁻⁶ cm/s, 3.1, greater than 1000 µg/mL and no less than 242 µg/mL.
For `CNC(=O)c1cc(C(=O)NC2CC2)c([C@H](C)c2ccccc2)o1`, the Papp in series [2] is greater than 0.4 ×10⁻⁶ cm/s. Besides, the chromatographic logD in series [1] worked out at 3.6. Besides, the solubility kinetic in series [4] is no less than 112 µg/mL.
On to `CNC(=O)c1cc(C(=O)N[C@H]2CC[C@H](O)CC2)n([C@@H](C)c2ccc(Cl)cc2)n1`, for which the Papp in series [2] amounted to 18 ×10⁻⁶ cm/s. This compound showed a chromatographic logD in series [1] of 3.7. Besides, in series [5], the solubility (usually the concentration that dissolves in the medium under given conditions) at 16 h is 102 µg/mL (≈ 252 µM). Also, the solubility kinetic in series [4] was no less than 132 µg/mL.
Consider `CNC(=O)c1cc(C(=O)N[C@H]2CC[C@H](O)CC2)n([C@@H](C)c2cccc(C(F)(F)F)c2)n1`, for which, in series [2], the Papp amounted to 28 ×10⁻⁶ cm/s. Besides, the chromatographic logD in series [1] came to 4.1. Further, the solubility kinetic in series [4] was 7 µg/mL (≈ 16 µM).
Take `CNC(=O)c1cc(C(=O)N[C@H]2CC[C@H](O)CC2)c([C@@H](C)c2cccc(C)c2)o1`: the Papp in series [2] came out at 8.5 ×10⁻⁶ cm/s. In series [1], this compound returned a chromatographic logD of 3.3. Also, the solubility at 16 h in series [5] was greater than 1000 µg/mL. For the same compound, the solubility kinetic in series [4] was no less than 172 µg/mL.
For `CNC(=O)c1cc(C(=O)N[C@H]2CC[C@H](O)CC2)c([C@@H](C)c2ccc(C)cc2)o1`, in that order: 10.8 ×10⁻⁶ cm/s, 3.4, greater than 1000 µg/mL and no less than 245 µg/mL.
With `CCCNC(=O)c1cc(C(=O)NC)nn1[C@@H](C)c1ccccc1`, the Papp in series [2] was found to be 56 ×10⁻⁶ cm/s. For the same compound, in series [1], the chromatographic logD came out at 4.4. The solubility kinetic in series [3] was no less than 132 µg/mL.
In turn, `CNC(=O)c1cc(C(=O)NC2CC2)cn([C@@H](C)c2ccccc2)c1=O` gave a chromatographic logD in series [1] of 3.3. Further, the solubility at 16 h in series [5] is 699 µg/mL (≈ 2060 µM).
In the case of `CNC(=O)c1cc(C(=O)N[C@H]2CC[C@H](O)CC2)n([C@@H](C)c2ccccc2Cl)n1`, the Papp in series [2] was found to be 10 ×10⁻⁶ cm/s. The compound also had a chromatographic logD in series [1] of 3.9. The solubility kinetic in series [4] was no less than 182 µg/mL.
For the compound `CNC(=O)c1cc(C(=O)N[C@H]2CC[C@H](O)CC2)n([C@@H](C)c2cccc(Cl)c2)n1`, the Papp in series [2] turned out to be 23.5 ×10⁻⁶ cm/s. The chromatographic logD in series [1] came to 3.7. The compound further displayed a solubility at 16 h in series [5] of 196 µg/mL (≈ 484 µM). The solubility kinetic in series [4] is no less than 143 µg/mL.
Turning to `CNC(=O)c1cc(C(=O)NCCO)n([C@@H](C)c2ccccc2)n1`, in series [2], the Papp came to 5.9 ×10⁻⁶ cm/s. In series [1], this compound came in with a chromatographic logD of 2.4. In series [3], this compound registered a solubility kinetic of no less than 139 µg/mL.
As to `CNC(=O)c1cc(C(=O)N[C@H]2CC[C@H](O)CC2)c([C@@H](C)c2ccc(Cl)cc2)o1`, the Papp in series [2] is 15 ×10⁻⁶ cm/s. Moreover, the chromatographic logD in series [1] worked out at 3.5. For the same compound, in series [4], the solubility kinetic is no less than 118 µg/mL.
Regarding `CNC(=O)c1cc(C(=O)N[C@H]2CC[C@H](OC)CC2)n([C@@H](CO)c2ccccc2)n1`, in series [2], the Papp amounted to 3.9 ×10⁻⁶ cm/s. The same compound displayed a chromatographic logD in series [1] of 2.7. In series [5], the solubility at 16 h is greater than 1000 µg/mL. Moreover, the solubility kinetic in series [4] was no less than 164 µg/mL.
For the compound `CC[C@@H](c1ccccc1)n1nc(C(=O)NC)cc1C(=O)N[C@H]1[C@@H]2C[C@H](O)C[C@@H]21`, the Papp in series [2] came to 23 ×10⁻⁶ cm/s. Further, the chromatographic logD in series [1] is 3.6.
Regarding `CNC(=O)c1cc(C(=O)NC(C)CO)c([C@@H](C)c2ccccc2)o1` (stereo partly specified), the Papp in series [2] stood at 5.7 ×10⁻⁶ cm/s. This compound also displayed a chromatographic logD in series [1] of 2.7. The solubility kinetic in series [3] is no less than 121 µg/mL.
As to `CC[C@@H](c1ccccc1)n1nc(C(=O)NC)cc1C(=O)N[C@H]1[C@@H]2C[C@@H](O)C[C@@H]21`, the Papp in series [2] was found to be 12 ×10⁻⁶ cm/s. Further, the chromatographic logD in series [1] amounted to 3.3. Moreover, in series [5], the solubility at 16 h turned out to be 56 µg/mL (≈ 146 µM).
As to `CNC(=O)c1cc(C(=O)NC)n([C@@H](C)c2ccccc2)n1`, the Papp in series [2] was 28 ×10⁻⁶ cm/s. Moreover, in series [1], the chromatographic logD turned out to be 3. The solubility kinetic in series [3] is no less than 88 µg/mL.
Turning to `CNC(=O)c1cc(C(=O)NC2CC2)n([C@@H](C)c2ccccc2)n1`, in series [2], the Papp was greater than 40 ×10⁻⁶ cm/s. Moreover, the chromatographic logD in series [1] is 3.6. The compound further gave a solubility in series [5] of 939 µg/mL (≈ 3010 µM). Also, the solubility kinetic in series [4] and in series [3] was no less than 165 µg/mL in each case.
With `CCC(=O)c1c[nH]c(C(=O)NC)c1`, the Papp in series [2] stood at 20 ×10⁻⁶ cm/s. The compound also returned a chromatographic logD in series [1] of 3.1. The same compound showed a solubility at 16 h in series [5] of 13 µg/mL (≈ 72.1 µM). In addition, the solubility kinetic in series [4] was 87 µg/mL (≈ 483 µM).
For the compound `CNC(=O)c1cc(C(=O)NC2CC2)c([C@@H](C)c2ccccc2)o1`, in series [2], the Papp came to 50 ×10⁻⁶ cm/s. This compound also gave a chromatographic logD in series [1] of 3.6. In series [5], this compound showed a solubility of 423 µg/mL (≈ 1350 µM). In addition, the solubility kinetic in series [4] and in series [3] was no less than 145 µg/mL in each case.
Turning to `CCNC(=O)c1cc(C(=O)NC)nn1[C@@H](C)c1ccccc1`, in series [2], the Papp worked out at 43.5 ×10⁻⁶ cm/s. In series [1], this compound came in with a chromatographic logD of 3.7. In series [3], this compound came in with a solubility kinetic of no less than 137 µg/mL.
For the compound `CNC(=O)c1cc(C(=O)N[C@H]2CC[C@H](O)CC2)c([C@@H](C)c2cccc(F)c2)o1`, the Papp in series [2] is 7.3 ×10⁻⁶ cm/s. Besides, in series [1], the chromatographic logD is 4.1. Moreover, in series [4], the solubility kinetic is no less than 63 µg/mL.
For the compound `CC[C@@H](c1ccccc1)n1nc(C(=O)NC)cc1C(=O)N[C@H]1CC[C@H](O)CC1`, in series [2], the Papp worked out at 7 ×10⁻⁶ cm/s. In series [5], this compound yielded a solubility at 16 h greater than 1000 µg/mL. For the same compound, in series [4], the solubility kinetic worked out at 138 µg/mL (≈ 359 µM).
As for `CNC(=O)c1cc(C(=O)NC2CC2)n(Cc2ccccc2)n1`, the Papp in series [2] was greater than 8 ×10⁻⁶ cm/s. The chromatographic logD in series [1] came out at 3.1. In series [5], this compound registered a solubility at 16 h of 285 µg/mL (≈ 955 µM). Moreover, the solubility kinetic in series [4] is no less than 155 µg/mL.
As for `CCNC(=O)c1cc2c(-c3cc(C(C)(C)O)ccc3Oc3c(C)cc(F)cc3C)cn(C)c(=O)c2[nH]1` [ABBV-744], in series [2], the Papp is 41.3 ×10⁻⁶ cm/s. The chromatographic logD in series [1] came to 5.1. The CLint in series [6] stood at 5.1 mL/min/g. Further, in series [4], the solubility kinetic amounted to 26 µg/mL (≈ 52.9 µM).
